The results in this text go back to patent US12161719B2, “Method of enhancing the antimicrobial action of systemically administered antibiotics” (Koite Health Oy, priority 2019, dated 2024).

Format in all cases: cell-based
Assay [1] concerns Streptococcus mutans biofilms. In words: 1 day biofilm test with Azithromycine, Indocyanine Green and light. As to conditions: 15 μg with Indocyanine Green. As for the experimental part:
A further series of tests was carried out for Streptococcus mutans biofilms using Azithromycine (15 μg) and Indocyanine Green using light at 100 J/cm^2. For 1 day biofilms, the CFU was on an average <1 after treatment with dual light of 405 nm and 810 nm, respectively (at ratios of 3:1 to 1:3), whereas for either 405 nm or 810 nm wavelength light alone, the CFU was on an average below 100 after 1 day. For Azithromycine and Indocyanine Green without light, the CFU was about 1E06 to 1E07 after 1 day.

Assay [2] is described as follows: Antibiotic susceptibility test (doxycycline disc on petri dishes, with or without light). An excerpt:
Antibiotic Susceptibility Test Each test was repeated 3 times with identical treatment and growth parameters. The calculated CFU:s for 100 J/cm^2 treated doxycycline disc results are shown in table 1 and representing image of difference between treated and non-treated doxy petri dish are shown in FIG. 1. […] Starting from the left is the doxycycline inhibition effect in dark, in the middle the resulting petri dish with 405 nm and 810 nm exposure and on the right side the petri dish with 405 nm excitation is shown.

In assay [3] the test system is planktonic Streptococcus mutans. Briefly: Planktonic bacteria test, light activation of doxycycline. The text has this:
FIG. 2 is a bar chart showing bacteria growth of Streptococcus mutans for four different treatments, illustrating the effect of light activation of doxycycline against planktonic Streptococcus mutans; FIG. 2 is a bar chart showing light activation of doxycycline at 405 nm in a planktonic bacteria test. […] 100 J of antibacterial blue light had minor reduction in CFU compared to non-exposed control.

Assay [4] deals with Streptococcus mutans 4 day biofilm. In words: 4-day biofilm effectivity test, colony formation (CFU). An excerpt: FIG. 3 is a bar chart showing a comparison of the doxycycline effect with light excitations of 405 nm, dual-light (810 nm & 405 nm) and 370 nm to Streptococcus mutans colony formation in 4 day biofilm model; FIG. 4 is a bar chart showing the doxycycline effect against Streptococcus mutans 4 day biofilm for light excitation using a combination of light of 405 nm and 810 nm (“dual-light”) together with an ICG sensitizer, compared with light of 810 nm together with an ICG sensitizer (“doxy+aPDT”) and with 405 nm light without ICG sensitizer (“405”). A control of doxycycline is given as a reference; and […] is a bar chart showing a comparison of doxycycline effect with light excitations of […] on Streptococcus mutans colony formation in a 4-day biofilm effectivity test. FIG. 4 gives the CFU:s for Streptococcus mutans colonies on petri dishes after 4-day treatments, repeated 6 times with identical treatment and growth parameters, for four series of tests. The first (non-existent) bar represents the CFU:s for S. mutans colonies doxycycline which had been treated with doxycycline (30 μg) and dual light of 405 nm and 810 nm together with Indocyanine Green. The energy intensity of the light was 100 J/cm^2. […]

Each structure is given as a SMILES string. Where only a bound is given, the exact number is not on record here.

As to `CC[C@H]1OC(=O)[C@H](C)[C@@H](O[C@H]2C[C@@](C)(OC)[C@@H](O)[C@H](C)O2)[C@H](C)[C@@H](O[C@@H]2O[C@H](C)C[C@H](N(C)C)[C@H]2O)[C@](C)(O)C[C@@H](C)CN(C)[C@H](C)[C@@H](O)[C@]1(C)O` [Azithromycine], the “CFU on an average” value in assay [1] (405 nm light alone, 100 J/cm^2, 1 day) is “below 100”; in assay [1] (810 nm light alone, 100 J/cm^2, 1 day), “below 100”; in assay [1] (dual light 405 nm and 810 nm (ratios 3:1 to 1:3), 100 J/cm^2, 1 day biofilms), under 1.
Take `C[C@H]1c2cccc(O)c2C(=O)C2=C(O)[C@]3(O)C(=O)C(C(N)=O)=C(O)[C@@H](N(C)C)[C@@H]3[C@@H](O)[C@@H]21` [doxycycline]: the Regression diameter in assay [2] (44 J/cm^2 405 nm + 60 J/cm^2 810 nm) is 29,66666667; in assay [2] (83 J/cm^2 405 nm) it was 30,33333; in assay [2] (no light, disc test, repeated 3 times), 26,33333. Further, the bacteria growth in assay [3] (doxycycline without light) is given as ≥ 10^7 CFU. For the same compound, the “bactericidal effect, bacteria killing” value in assay [3] (light activated at 405 nm) is recorded as “over 3 log”. Further, the “improvement of antibacterial light effect with the addition of doxycycline” value in assay [4] (370 nm light) and in assay [4] (405 nm light) was “over 1.5 log” in each case.
